PubChem BioAssay (NCI)
Several values for one entry are separate records, joined by “and”; a condition that tells them apart may be missing. Identical values can stand only once.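 Assay format: 96-well plates, 48-hour exposure. At the GI50, growth is halved. At the TGI there is no net growth.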

Tests used:
Experiment in all cases: growth of human tumour cells (NCI), 48 h
A498 renal = tested on: A498 renal
ACHN renal = tested on: ACHN renal
COLO 205 colon = tested on: COLO 205 colon
DU-145 prostate = tested on: DU-145 prostate
HL-60(TB) leukemia = tested on: HL-60(TB) leukemia
K-562 leukemia = tested on: K-562 leukemia
LOX IMVI melanoma = tested on: LOX IMVI melanoma
M14 melanoma = tested on: M14 melanoma
MOLT-4 leukemia = tested on: MOLT-4 leukemia
NCI-H23 lung = tested on: NCI-H23 lung
NCI/ADR-RES ovarian = tested on: NCI/ADR-RES ovarian
OVCAR-5 ovarian = tested on: OVCAR-5 ovarian
SR leukemia = tested on: SR leukemia
SW-620 colon = tested on: SW-620 colon
T-47D breast = tested on: T-47D breast
U251 CNS = tested on: U251 CNS
UACC-257 melanoma = tested on: UACC-257 melanoma

Structure (SMILES)	TGI (A498 renal)	TGI (ACHN renal)	TGI (COLO 205 colon)	TGI (DU-145 prostate)	TGI (HL-60(TB) leukemia)	TGI (K-562 leukemia)	TGI (LOX IMVI melanoma)	TGI (M14 melanoma)	TGI (MOLT-4 leukemia)	TGI (NCI-H23 lung)	TGI (NCI/ADR-RES ovarian)	TGI (OVCAR-5 ovarian)	TGI (SR leukemia)	TGI (SW-620 colon)	TGI (T-47D breast)	TGI (U251 CNS)	TGI (UACC-257 melanoma)	GI50 (HL-60(TB) leukemia)	GI50 (MOLT-4 leukemia)
COc1cc(C(C[N+](=O)[O-])SC(C)=O)ccc1OCc1ccccc1 (stereo unspecified)	15.4 µM	24.7 µM	13 µM	27.1 µM	1.57 µM	5.45 µM	3.35 µM	11.2 µM	5.52 µM	12.3 µM	> 38.3 µM	29.6 µM	4.86 µM	10.6 µM	54.5 µM	22.7 µM	10.5 µM	–	–
COC1CC(C)([N+](=O)[O-])C(O)C(C)O1 (stereo unspecified)	> 100 µM	> 100 µM	> 100 µM	> 100 µM	> 100 µM	> 100 µM	> 100 µM	> 100 µM	> 100 µM	> 100 µM	> 100 µM	> 100 µM	> 100 µM	> 100 µM	> 100 µM	> 100 µM	> 100 µM	–	–
CCOC(=O)c1nc2ccccc2nc1Nc1ccc(OC)cc1	84.5 µM	> 100 µM	> 100 µM	> 100 µM	> 100 µM	> 100 µM	> 100 µM	> 100 µM	> 100 µM	> 100 µM	> 100 µM	> 100 µM	> 100 µM	> 100 µM	> 100 µM	> 100 µM	> 100 µM	–	–
O=c1cc(NNc2ccccc2F)[nH]c(=O)[nH]1	> 100 µM	32.3 µM	33.8 µM	> 100 µM	34.3 µM	57.6 µM	29.7 µM	31.5 µM	54 µM	31.6 µM	31.4 µM	38.7 µM	7.37 µM	31.9 µM	18 µM	31.9 µM	32 µM	–	–
CCCCC(/C=C\COC1CCCCO1)=C/C(=O)OCC (stereo unspecified)	> 100 µM	> 100 µM	> 100 µM	> 100 µM	67.5 µM	> 100 µM	> 100 µM	> 100 µM	71.5 µM	> 100 µM	> 100 µM	> 100 µM	> 100 µM	> 100 µM	> 100 µM	> 100 µM	> 100 µM	–	–
NC(=O)NNCc1c(-c2ccccc2)no[n+]1[O-]	> 100 µM	> 100 µM	> 100 µM	> 100 µM	> 100 µM	> 100 µM	> 100 µM	> 100 µM	> 100 µM	> 100 µM	> 100 µM	> 100 µM	> 100 µM	> 100 µM	> 100 µM	> 100 µM	> 100 µM	–	–
c1ccc(-c2c3c(nc4c2CC[C@H]4NC2=NCCN2)[C@@H](NC2=NCCN2)CC3)cc1	> 100 µM	> 100 µM	> 100 µM	> 100 µM	> 100 µM	> 100 µM	> 100 µM	> 100 µM	> 100 µM	> 100 µM	> 100 µM	> 100 µM	> 100 µM	> 100 µM	> 100 µM	23.6 µM	> 100 µM	–	–
COc1cc(C2c3[nH]c4ccccc4c3[C@@H](Nc3ccc(C#N)cc3)[C@H]3COC(=O)N23)cc(OC)c1O (stereo partly specified)	0.777 µM	0.621 µM	> 3.81 µM	0.839 µM	0.165 µM	> 10 µM	0.681 µM	1.58 µM	0.0634 µM	2.55 µM	> 10 µM	4.54 µM	0.059 µM	1.49 µM	3.5 µM	1.32 µM	3.29 µM	–	–
Cc1cc(S(=O)(=O)Nc2n[nH]c(Nc3ccc4ccccc4c3)n2)c(S)cc1Cl	> 100 µM	> 100 µM	> 100 µM	> 100 µM	> 100 µM	> 100 µM	> 100 µM	> 100 µM	> 100 µM	> 100 µM	> 100 µM	> 100 µM	> 100 µM	> 100 µM	> 100 µM	> 100 µM	> 100 µM	–	–
CCCC(C)NC(=O)c1ccc(N(C)Cc2cnc3nc(N)nc(N)c3n2)cc1 (stereo unspecified)	> 100 µM	92.5 µM	> 100 µM	> 100 µM	> 100 µM	> 100 µM	82.6 µM	31.1 µM	> 100 µM	> 100 µM	> 100 µM	88.6 µM	> 100 µM	> 100 µM	53.9 µM	> 100 µM	57.5 µM	–	–
CC1OC(OC2C(OC(=O)[C@]34CCC(C)(C)C[C@H]3C3=CC[C@@H]5[C@@]6(C)CC[C@H](OC7OC(CO)C(O)C(O)C7OC7OC(CO)C(O)C(O)C7O)C(C)(C)[C@@H]6CC[C@@]5(C)[C@]3(C)CC4)OCC(O)C2O)C(O)C(O)C1OC1OCC(O)C(OC2OCC(O)C(O)C2O)C1O (stereo partly specified)	4.44 µM and 3.95 µM	15.4 µM and 18.3 µM	3.42 µM and 6.5 µM	19.2 µM and 20.8 µM	4.15 µM and 7.43 µM	18.8 µM and 17.6 µM	24 µM and 23.6 µM	3.98 µM and 3.49 µM	22.4 µM and 26.6 µM	8.52 µM and 6.54 µM	18.1 µM and 16.2 µM	16.7 µM and 16 µM	8.14 µM and 8.97 µM	25.3 µM and 23.6 µM	21.8 µM and 16.6 µM	22.9 µM and 19.7 µM	6.02 µM and 5.36 µM	1 µM and 2.72 µM	2.87 µM and 9.41 µM
NC(=O)c1nnsc1NN=O	> 100 µM	> 100 µM	> 100 µM	> 100 µM	> 100 µM	> 100 µM	> 100 µM	> 100 µM	> 100 µM	> 100 µM	> 100 µM	> 100 µM	> 100 µM	> 100 µM	> 100 µM	> 100 µM	> 100 µM	–	–
CCN(CC)c1ccc2cc(C(=O)NCc3ccccc3)c(=N)oc2c1	> 100 µM	> 100 µM	> 59.7 µM	> 100 µM	> 100 µM	> 26 µM	> 100 µM	> 100 µM	> 100 µM	97 µM	> 100 µM	> 100 µM	> 100 µM	> 100 µM	> 28.6 µM	> 100 µM	> 100 µM	–	–
CN=C(N)N=Nc1c(O)[nH]c2ccccc12	> 100 µM	> 100 µM	> 100 µM	> 100 µM	> 100 µM	> 100 µM	> 100 µM	> 100 µM	> 100 µM	> 100 µM	> 100 µM	> 100 µM	> 100 µM	> 100 µM	> 100 µM	> 100 µM	> 100 µM	–	–
COC(=O)c1nn2ccc3ccccc3c2c1C(=O)OC	> 100 µM	> 100 µM	> 100 µM	> 100 µM	> 100 µM	> 100 µM	> 100 µM	> 100 µM	> 100 µM	> 100 µM	> 100 µM	> 100 µM	> 100 µM	> 100 µM	> 100 µM	> 100 µM	> 100 µM	–	–
O=C(Cn1c(=O)oc2ccc(C(=O)c3ccc(F)cc3)cc21)c1ccccc1	93.3 µM	> 100 µM	> 100 µM	> 100 µM	> 100 µM	> 100 µM	> 100 µM	> 100 µM	> 100 µM	> 100 µM	> 100 µM	> 100 µM	> 100 µM	> 100 µM	> 100 µM	> 100 µM	> 100 µM	–	–
CC1(C)S[C@H](CN)N[C@H]1C(=O)OC(c1ccccc1)c1ccccc1	70.4 µM	> 100 µM	33.8 µM	> 100 µM	35.7 µM	55.8 µM	33.8 µM	> 100 µM	74.9 µM	> 100 µM	> 100 µM	> 100 µM	63.6 µM	> 100 µM	74.3 µM	> 100 µM	40.5 µM	–	–
